Experimental data as given in the NIST ThermoML archive (doi:10.1021/je100704j).
± gives the expanded uncertainty stated by the source.

Legend:
[1] = 298.15 K; 101.33 kPa; Liquid; Vibrating tube method
[2] = refractive index (Na D-line) (dimensionless); settings: 293.15 K; 101.33 kPa; Liquid; Standard Abbe refractometry

| mass density [1] | refractive index [2] | Compound |
| --- | --- | --- |
| 894.6 ± 0.2 kg/m3 | 1.3701 ± 0.0008 | CCOC(C)=O [ethyl acetate] |
| 971.7 ± 0.2 kg/m3 | 1.4489 ± 0.0008 | CC(=O)CC(C)=O [2,4-pentanedione] |
| 996.8 ± 0.2 kg/m3 | 1.3327 ± 0.0008 | O [water] |
| 773.4 ± 0.2 kg/m3 | 1.4259 ± 0.0008 | C1CCCCC1 [cyclohexane] |
